Assay results reported in BigSolDB 2.1.

Settings: in water

SMILES: C=CCC
- solubility (mole fraction) (293.15 K): 9.53e-05
- solubility (mole fraction) (295.15 K): 8.78e-05
- solubility (mole fraction) (298.15 K): 7.97e-05
- solubility (mole fraction) (300.15 K): 7.44e-05
- solubility (mole fraction) (303.15 K): 6.77e-05
- solubility (mole fraction) (305.15 K): 6.42e-05
- solubility (mole fraction) (308.15 K): 5.96e-05
- solubility (mole fraction) (310.15 K): 5.56e-05
- solubility (mole fraction) (313.15 K): 5.24e-05
- solubility (mole fraction) (315.15 K): 4.9e-05
- solubility (mole fraction) (318.15 K): 4.63e-05
- solubility (mole fraction) (320.15 K): 4.42e-05
- solubility (mole fraction) (323.15 K): 4.12e-05
